Laboratory results: publication PMC12299847, “Macroalgae-Inspired Brominated Chalcones as Cosmetic Ingredients with the Potential to Target Skin Inflammaging” (Marine Drugs, 2025)
Counter-ions that a name gives are not always drawn. One block for each molecule: values may come before it.

What was measured:
[1] = tested on: HaCaT keratinocytes; test: Resazurin cell viability assay in HaCaT keratinocytes; format: cell-based, human; conditions: HaCaT, 24 h
Method: (§1) To evaluate the effects of chalcones 1–7 on cell viability after 24 h, a resazurin assay was performed using two cell lines: human HaCaT keratinocytes (HaCaT, CLS 300493), representing the epidermal layer, and murine RAW 264.7 macrophages (RAW 264.7, ATCC TIB-71), which model immune cells involved in dermal inflammatory responses. For the keratinocyte cell line, all seven brominated and non-brominated chalcones were tested across a concentration range from 2.5 μM to 125 μM (Figure 2).
(§2) Human keratinocytes (HaCaT, CLS 300493, Eppelheim, Germany) were cultured in DMEM supplemented with heat-inactivated FBS, and a penicillin and streptomycin antibiotic solution. The cell culture of keratinocytes was washed with 6 mL of phosphate buffer solution with 0.05% EDTA (Sigma-Aldrich, St. Louis, MO, USA) and detached using 3 mL of 0.05% trypsin + 0.02% EDTA in PBS solution when the cells reached 70–80% confluence in cell culture flasks. DMEM was also used to cultivate the mouse macrophage cell line (RAW 264.7, ATCC TIB-71, Manassas, VA, USA) together with 10% (v/v) non-inactivated FBS, 1.5 g/L sodium bicarbonate, and 100 U/mL penicillin and 100 μg/mL streptomycin stock (antibiotic solution). The macrophage culture was mechanically detached using a cell scraper, and the final amount of DMEM media with the cells was sub-cultured in a 1:10 ratio to the cellular suspension.
(§3) The resazurin reduction assay was employed to evaluate the metabolic activity of human epidermal keratinocyte (HaCaT) and murine macrophage (RAW264.7) cell lines, as outlined in a previous study. In brief, HaCaT cells (1.0 × 10^5 cells/mL) and RAW264.7 cells (5.0 × 10^4 cells/mL) were seeded in 96-well plates (200 μL/well) and incubated overnight at 37 °C to allow for cell attachment. Following this, the cells were treated with different concentrations of the test compounds and kept at 37 °C for 24 h. After 20 h, resazurin (500 μM in sterile phosphate buffer solution, pH 7.4) was added to each well to achieve a final concentration of 50 μM, followed by an additional incubation of 4 h. Absorbance was then measured at wavelengths of 570 and 620 nm using a SpectraMax Plus 384 absorbance microplate spectrophotometer (Molecular Devices, San Jose, CA, USA). Each experiment was conducted in triplicate, with a minimum of three independent assays. The results were graphically presented as the percentage of cell viability versus chemical concentration, relative to the control.
(§4) Figure 2 Cytotoxicity of chalcones 1–7 using a resazurin reduction assay in HaCaT cells by comparison with the control. Bar graphs represent the mean ± SEM of at least three independent experiments performed in triplicate. Statistical analysis: one ANOVA with Dunnett’s multiple comparisons test, where p < 0.05 was considered significant when compared to the control condition. * p < 0.05, ** p < 0.01, and *** p < 0.0005.

[2] = tested on: NO production in LPS-stimulated RAW 264.7 macrophages; test: NO production (Griess assay) in LPS-stimulated macrophages; format: cell-based, murine; conditions: RAW 264.7, LPS 100 ng/mL; for IC50: Mus musculus, RAW264.7, 24 h, Griess
Method: The anti-inflammatory potential of chalcones 1–7 was evaluated in macrophages cultured in the presence or absence (control) of LPS, as depicted in Figure 4. Under basal conditions (unstimulated, control), macrophages produce low levels of nitrites (≈12%). […] Each chalcone was tested at concentrations previously established as non-cytotoxic in macrophages, trying to ensure that observed changes in NO levels were not due to reduced cell viability.
The production of NO was evaluated by measuring nitrite accumulation in culture supernatants using the previously described Griess assay. Cells were seeded at a concentration of 5.0 × 10^4 cells/mL in a 96-well plate (200 μL/well) and allowed to stabilize overnight at 37 °C. Afterwards, the cells were treated with different concentrations of compound solutions and pre-incubated for 1 h at 37 °C. Subsequently, an LPS in PBS solution was added to each well, achieving a final concentration of 100 ng/mL, and the plate was left to incubate for 24 h. An amount of 150 μL of the cell culture supernatant was then transferred to a fresh 96-well plate, and an equal amount of Griess reagent [comprising a 1:1 mixture of 1% (w/v) sulphanilamide in 5% (v/v) phosphoric acid and 0.1% (w/v) naphthylethylenediaminedihydrochloride] was added. Following a 30 min incubation at room temperature in the dark, the absorbance was recorded at 550 nm using a Biotek Synergy HT plate reader (Biotek, CA, USA). The nitrite concentration in the supernatants was determined by comparing the absorbance of each sample to a sodium nitrite standard curve. The results, obtained from at least three independent experiments performed in duplicate, were expressed as a percentage of NO production by cells versus chemical concentration, relative to LPS condition (100%).
Figure 4 NO production by macrophages treated with LPS (100 ng/mL) or not (control) in the presence of chalcones 1–7. Results are expressed as a percentage of NO production by cells treated with LPS (100 ng/mL). Each value represents the mean ± SEM of four independent experiments in duplicate. Statistical analysis: one ANOVA with Dunnett’s multiple comparisons test, where p< 0.05 was considered significant. *** p < 0.005, relative to the control, and ^# p < 0.05, ^## p < 0.01, ^### p < 0.0005, and ^#### p < 0.0001, relative to LPS condition.

[3] = tested on: Nrf2; test: KeratinoSens assay, Nrf2 luciferase reporter; format: cell-based, human; conditions: 100 µM, positive control
Method: The KeratinoSens™ assay was originally developed to assess the skin sensitization potential of Nrf2 activation, but it has also been utilized to evaluate the ability of natural compounds to induce this transcription factor [46, 47]. In this study, we assessed the capacity of chalcones 1 and 2 to activate Nrf2 after 24 and 48 h (Figure 8A–F).
Selected compounds (chalcones 1 and 2), and the positive control, DMF, were dissolved in sterile DMSO. Intermediate dilutions were prepared in culture medium, including the final concentration to be added to the 96-well plate, with a final volume of 200 µL per well. The KeratinoSens™ assay was conducted as previously described. In brief, cells were seeded at a density of 10,000 cells per well in 96-well white opaque plates (Greiner Bio-One GmbH, cat. no. 655083, Kremsmünster, Austria) and incubated for 24 h. The medium was then replaced with fresh medium containing 1% FBS and the test compounds, and cells were incubated for an additional 24 and 48 h. DMF was used as the positive control since it is a known Nrf2 activator. Cell viability was assessed in the same cells using resazurin. After 20 or 44 h of exposure to the test compounds, 50 µM of resazurin solution (in sterile PBS) was added to each well, and the plates were incubated for 4 h at 37 °C, 5% CO2 Following the resazurin incubation, the supernatant was transferred to a transparent 96-well plate, and absorbance was measured at 570 and 620 nm using a Synergy HT multi-mode microplate reader (BioTek, Bad Friedrichshall, Germany). To measure luciferase activity, cells in the white opaque 96-well plates were washed with 1× PBS. An equal volume of 1× PBS and lysis buffer (One-GLO Luciferase, cat. no. E6130, Promega, Madison, WI, USA) was added to the wells, and the plates were incubated for 20 min at room temperature. Luminescence was then measured using a FLUOstar OMEGA Microplate Reader (BMG Labtech GmbH, Ortenberg, Germany).
Figure 8 Nrf2 activation using the KeratinoSens™ assay in HaCaT cells transfected with an Nrf2 luciferase reporter construct, incubated for 24 h (A–C) or 48 h (D–F) with chalcones 1 and 2. DMF was used as a positive control. Data represent the results from four independent experiments. Non-linear regression analysis was performed using GraphPad Prism v.9.0.0 for Windows. The blue line represents the results of cell viability (% regarding the control) and the green line represents fold induction. Statistical analysis: one ANOVA with Dunnett’s multiple comparisons test, where significance includes. * p < 0.05, ** p < 0.01, *** p < 0.0005, and **** p < 0.0001.

[4] = Resazurin cell viability assay in HaCaT keratinocytes; format: cell-based, human; conditions: human, HaCaT keratinocytes, resazurin, read-out: IC50 (cell viability, cytotoxicity)
Method: as §1, §2, §3, §4

[5] = tested on: RAW 264.7 macrophages; test: Resazurin cell viability assay in RAW 264.7 macrophages; format: cell-based, murine; conditions: RAW 264.7, 24 h
Method: as §1
To evaluate the cytotoxic effects of brominated and non-brominated chalcones 1–7 on macrophages, different concentration ranges were applied based on the response profiles previously observed for keratinocytes (Figure 3). […] For this set of chalcones, a similar tendency was observed: a lower cytotoxic characteristic of chalcone 4, which contained bromine atoms in both aromatic rings, compared to chalcones 5 (brominated in only the aromatic A ring) and 6 (non-brominated).
as §2
as §3, with “The results were graphically presented as the percentage of cell viability versus chemical concentration, relative to the control.” left out

[6] = tested on: iNOS protein levels in RAW264.7 macrophages; test: Western blot analysis of iNOS expression in LPS-stimulated macrophages; format: cell-based, murine; conditions: for iNOS expression level: normalized against LPS condition
Method: To investigate the underlying mechanism of action of the most promising brominated chalcones (1 and 2), their effects on iNOS protein levels were assessed in LPS-stimulated macrophages at different time points (4, 6, and 24 h). The non-treated (NT) condition, consisting of macrophages stimulated with LPS but receiving no chalcone treatment, was used as the reference for maximal iNOS induction under inflammatory conditions and served as a positive control. The selected concentrations (7.5 μM and 15 μM) were selected based on chalcones 1 and 2 cytocompatibility (Figure 3) and efficacy in reducing NO production (Figure 4). Since NO production is a direct consequence of iNOS enzymatic activity, where the enzyme catalyzes the conversion of L-arginine to NO following inflammatory stimulation such as LPS, this provides a functional readout of iNOS expression and activity.
Here, we focused on validating iNOS expression at the protein level by western blot (Figure 6). While gene-level expression was not assessed, it is well established that LPS stimulation induces both iNOS transcription and translation in RAW 264.7 macrophages. Moreover, changes observed at the protein level are often closely associated with upstream transcriptional or translational modulation. Therefore, quantifying iNOS protein levels provides a biologically relevant measure of the chalcones’ inhibitory effects on this key inflammatory mediator.
The expression of the iNOS enzyme was analyzed by western blot. RAW264.7 macrophages were seeded at a density of 1 × 10^6 cells/well in a 6-well plate and incubated for 24 h at 37 °C in a humidified atmosphere containing 5% CO2. After incubation, cells were treated with 7.5 µM or 15 µM of the most promising chalcones (1 and 2) for 30 min, followed by the addition of LPS to have a final concentration of 100 ng/mL. Cells were then incubated for 4, 6, or 24 h. At each time point, cells were washed with PBS and lysed in RIPA buffer. The lysates were collected in Eppendorf tubes and kept on ice, with intermittent vortexing to ensure thorough lysis. Samples were centrifuged at 18,000× g for 16 min at 4 °C, and the supernatant was collected. Total protein concentration was determined using the Pierce™ BCA Protein Assay Kit (Thermo Scientific, 23225, Waltham, MA, USA), following the manufacturer’s instructions. Equal amounts of protein (25 µg) were loaded onto Bolt™ 8% Bis-Tris Mini Protein Gels (Invitrogen™, NW00087BOX, Waltham, MA, USA) and separated via electrophoresis. Proteins were then transferred onto nitrocellulose membranes (Invitrogen™, IB24002) using the iBlot® 2 dry transfer system (Invitrogen™, Waltham, MA, USA). After transfer, membranes were sectioned to separate the iNOS bands from those of the housekeeping protein GAPDH. Membranes were blocked for 1 h at room temperature in TBS-T containing 5% BSA and subsequently incubated overnight at 4 °C with primary antibodies against iNOS (Cell Signaling Technology, 16713120S, Danvers, MA, USA) or GAPDH (Abcam, ab181602, Cambridge, UK), diluted in TBS-T with 1% BSA. On the following day, membranes were washed three times with TBS-T and incubated for 1 h at room temperature with an HRP-conjugated secondary antibody (Cell Signaling Technology, 7074S) diluted in TBS-T with 1% BSA. After three additional washes, signal detection was performed using Clarity™ Western ECL Substrate (Bio-Rad, 1705061, Hercules, CA, USA), and chemiluminescent signals were acquired using the Odyssey FC imaging system (LI-COR, Lincoln, NE, USA). Densitometric analysis of iNOS bands was performed using Image Studio™ Software (version 5.2, LI-COR, Lincoln, NE, USA), with values normalized to the corresponding GAPDH bands.
Figure 6 iNOS expression level after treatment of 4, 6, and 24 h with chalcones 1 and 2 in macrophage cell line. Results are expressed as volume arbitrary unit (A). […]

SMILES: COc1ccc(/C=C2\CCc3cc(OC)c(OC)cc3C2=O)cc1OC [Chalcone 7]
maximal reduction in viability ([1]; significant effects only at 62.5 μM and 125 μM): ≤ 15% | reduction of NO production in LPS-stimulated cells ([2]; 24 h): 12%

SMILES: COC(=O)/C=C/C(=O)OC [DMF, dimethyl fumarate, reference compound]
Nrf2 activation, fold increase [3]: 8.36 fold

SMILES: COc1cccc(/C=C/C(=O)c2cccc(OC)c2OC)c1OC [Chalcone 6]
IC50 at 24 h [4]: 14.7 ± 3.97 µM | reduction in cellular viability ([1]; at 2.5 μM): ~25% | concentration up to which acceptable levels of cytotoxicity were observed [5]: up to 1 μM | IC50 [2]: 5.95 ± 1.49 µM

Now from value to molecule, other results behind:

IC50 [2]: 4.73 ± 0.67 µM
SMILES: COc1ccc(/C=C/C(=O)c2ccc(OC)c(OC)c2)cc1OC [Chalcone 3]
IC50 at 24 h [4]: 62.1 ± 1.07 µM | reduction in cell viability ([1]; at 62.5 and 125 μM): > 50% | concentration that reduced NO production to levels similar to the control ([2]; 24 h): 125 µM

IC50 [2]: 0.77 ± 0.31 µM
SMILES: COc1ccc(/C=C/C(=O)c2cc(OC)c(OC)cc2Br)cc1OC [Chalcone 2]
iNOS expression level ([6]; 7.5 µM, 4 h): 38.9% | maximum iNOS suppression ([6]; 7.5 µM, 24 h): ~ 80% | iNOS expression level ([6]; 7.5 µM, 24 h): 20.2% | iNOS expression level ([6]; 15 µM, 4 h): 20.5% | iNOS expression level ([6]; 15 µM, 6 h): 5.7% | iNOS suppression ([6]; 15 µM, 6 h, stable up to 24 h): ~ 95% | iNOS expression level ([6]; 15 µM, 24 h): 6.1%
